Laboratory results: patent US12527768B2, “Compositions comprising an anti-inflammatory drug and a dicer activator for use in the treatment of neuronal diseases” (NeuroSense Therapeutics Ltd., priority 2017, dated 2026)
Values joined by “and” are separate entries in the source; they are usually repeats but may differ in a detail not shown here. Equal values may be shown once. “Also recorded” adds a separate entry of the source.

How the values were obtained:
[1] = system: chronic electrode-implanted rats; settings: cited from earlier work; for EEG and behavior after intraventricular injection: relatively high dose
[2] = system: SOD1 G93R mutant zebrafish larvae; assay: Behavioral analysis (DanioVision): locomotor activity, distance moved; assay type: in vivo, zebrafish (Danio rerio); settings: for distance moved, elevation compared to non-treated SOD1 mutant, whole period of measurement: 6 dpf larvae; for distance moved compared to non-treated SOD1 mutant, whole experiment: 10 μM in swimming water; for effect on locomotor activity during all three experimental phases: spontaneous swimming, light/dark challenge, recovery from challenge
Excerpt: (§1) Treatment protocol SOD1 G93R mutant or WT fish were collected and raised according to accepted and approved protocols, see Westerfield M. The Zebrafish Book: a Guide for the Laboratory Use of Zebrafish (Danio rerio) 2000, incorporated herein as reference. Larvae's morphology was observed (heart rate, overall morphology and behavior) at each day.
Two-hundred and forty (240) larvae were selected from the same laying batch to be introduced to three distinct treatments and a control (n=60 per each treatment). First and second treatments were conducted at 3 and 5 days post fertilization (dpf), respectively, when the blood brain barrier (BBB) is fully closed, and the motor neurons (MNs) and neuromuscular junctions (NMJs) are fully developed. The materials were administrated in the swimming water (DB). At day 6, larvae were taken to behavioral analysis using the automated DanioVision™ system. Following analysis, larvae were fixed and whole-mount immunohistochemistry procedure was conducted to be used for high resolution morphological analysis. Treatment protocol is detailed in FIG. 1.
Behavioral analysis DanioVision™, an automated high-throughput tracking system of zebrafish larvae from Noldus Information Technology (Wageningen, the Netherlands), including control of light and dark conditions was used for the measurements and analysis of the results. Each single larvae was put in a single well, with the same volume of swimming water to ensure uniform background. Each animal was tested for its x,y position using dynamic subtraction 30 times per second. The distance each larvae moved in mm was calculated from the x,y position and averaged per time bin of 1 minute (average of 1800 measurements per each 1 minute). The behavioral profile was measured in 3 phases according to changes in environment that we applied, to introduce additional muscle and neurological stress. Spontaneous swimming, light/dark challenge (opto-kinetic response) and recovery from challenge behaviors were recorded and analyzed. All animals from the same treatment: wild type (WT), SOD1 mutant non-treated or treated were averaged per time bin of 1 minute to examine their reaction to additional stress, and then calculated for the whole period of time to get a relative number compared to the non-treated SOD1 mutant swimming behavior. Statistical analysis used was paired Student's t-tests (two-tailed) with two-sample assuming unequal variances. All P-values reported are two-tailed and the significance level was set at 0.05 (*), 0.01 to 0.001 (**) and below 0.001 (***).

[3] = system: inhibitory interneurons of SOD1 mutants; settings: 1 μM; cited from earlier work
ALS patients = settings: clinical trial; cited from earlier work
[4] = system: SOD1 G93R mutant zebrafish larvae; assay: Toxicity analysis of larvae (morphology, cardiovascular system, behavior, mortality); assay type: in vivo, zebrafish (Danio rerio)
Method: as §1
Toxicity analysis Fish were observed during the day of administration and the following days to observe toxicity. Acute toxicity was evaluated for apoptosis/necrosis and cardiovascular system abnormalities (heart rate, morphology, hemorrhage and edema). Head, eyes and overall morphological and behavioral toxicity were recorded according to accepted procedures^28.

[5] = system: cytochrome P450 (CYP450) 2C9 and 3A4; settings: cited from earlier work
ALS mouse models = settings: enhancement of DICER activity; cited from earlier work
RNAi = settings: cited from earlier work
Pseudomonas aeruginosa = settings: cited from earlier work
[6] = 100 μM in swimming water, 0.1% DMSO
[7] = 100 μM, recovery from challenge phase
[8] = 100 μM, spontaneous swimming phase

Structure (SMILES): CCOC(=O)Cc1ccc(-c2ccccc2)cc1 [Ferubinac ethyl]
- EEG and behavior after intraventricular injection [1]: spike and wave complex in EEG without showing remarkable behavioral changes

Structure (SMILES): Nc1nc2ccc(OC(F)(F)F)cc2s1 [Riluzole]
- distance moved, elevation compared to non-treated SOD1 mutant, whole period of measurement ([2]; 1 μM in swimming water): 36% and 36.8%
- locomotor activity, increase vs non-treated SOD1 mutant, light/dark challenge ([2]; 1 μM, light/dark challenge phase (10-20 min)): 32%
- locomotor activity, increase vs non-treated SOD1 mutant, recovery from challenge ([2]; 1 μM, recovery from challenge phase (last 10 minutes)): 39.7%
- locomotor activity, increase vs non-treated SOD1 mutant, spontaneous swimming ([2]; 1 μM, spontaneous swimming phase (0-10 min)): 38%
- neuronal stress in inhibitory interneurons [3]: reduced
- effect on ALS disease progression (ALS patients): modestly slowed ALS progression

Structure (SMILES): CC(=O)Oc1ccccc1C(=O)O.NCCCCC(N)C(=O)O (racemic) [aspirin DL-lysine]
- EEG and behavior after intraventricular injection [1]: spike and wave complex in EEG without showing remarkable behavioral changes

Structure (SMILES): Cc1ccc(-c2cc(C(F)(F)F)nn2-c2ccc(S(N)(=O)=O)cc2)cc1 [Celecoxib]
- distance moved, elevation compared to non-treated SOD1 mutant, whole period of measurement ([2]; 1 μM in swimming water): 6%
- locomotor effect of Celecoxib at 5 μM ([2]; 5 μM, 0.1% DMSO background): subtle locomotor decline; also recorded: reduction in locomotor ability
- locomotor effect of Celecoxib at 10 μM ([2]; 10 μM, 0.3% DMSO background): subtle locomotor decline; also recorded: Subtle locomotor reduction
- toxicity at high concentration ([4]; 30 μM, 0.3% DMSO, SOD1 mutants and WT): cardiovascular toxicity and death
- toxicity at lower concentrations ([4]; below 10 μM (0.3% DMSO) / 5 μM (0.1% DMSO)): no toxicity was evident
- metabolism in vivo [5]: oxidized by cytochrome P450 (CYP450) 2C9 and 3A4 to the inactive metabolite hydroxycelecoxib

Structure (SMILES): CCn1cc(C(=O)O)c(=O)c2cc(F)c(N3CCNCC3)nc21 [Enoxacin]
- distance moved compared to non-treated SOD1 mutant, whole experiment ([2]; 0.1% DMSO): not changed
- effect on locomotor activity during all three experimental phases ([2]; 10 μM): nearly no effect
- distance moved, elevation compared to non-treated SOD1 mutant, whole period of measurement [2, 6]: 20%
- distance moved, elevation compared to non-treated SOD1 mutant, whole period of measurement ([2]; 100 μM in swimming water, 0.1% DMSO, listed as enoxacin): 19.9%
- locomotor activity, increase vs non-treated SOD1 mutant, light/dark challenge ([2]; 100 μM, light/dark challenge phase): 21%
- locomotor activity, increase vs non-treated SOD1 mutant, recovery from challenge [2, 7]: 17.6%
- locomotor activity, increase vs non-treated SOD1 mutant, spontaneous swimming [2, 8]: 20.1%
- drug induced effects in morphology or mortality ([4]; Enoxacin 10 μM and 100 μM, 0.1% DMSO): no drug induced effects in morphology or mortality were observed
- effect in two independent ALS mouse models (ALS mouse models): beneficial in vivo
- epileptogenic activity, EEG ([1]; intraventricular, 50 and 100 micrograms): potent epileptogenic activity

Structure (SMILES): O=C(O)c1cn(C2CC2)c2cc(N3CCNCC3)c(F)cc2c1=O [Ciprofloxacin]
- distance moved compared to non-treated SOD1 mutant, whole experiment ([2]; 0.1% DMSO): did not significantly affect locomotor activity; also recorded: not changed
- effect on locomotor activity during all three experimental phases ([2]; 10 μM): nearly no effect
- locomotor activity of Ciprofloxacin compared to Enoxacin treatment ([2]; 100 μM each, spontaneous swimming and recovery from challenge): elevated locomotor activity compared to Enoxacin treatment
- distance moved, elevation compared to non-treated SOD1 mutant, whole period of measurement [2, 6]: 18% and 17.8%
- locomotor activity, increase vs non-treated SOD1 mutant, recovery from challenge [2, 7]: 33.5%
- locomotor activity, increase vs non-treated SOD1 mutant, spontaneous swimming [2, 8]: 26.2%
- effect on locomotor activity under dark conditions ([2]; 1, 10, 50, 100, 200 and 500 μM): nearly no effect
- locomotor activity in the phase of recovery from stress, dose response ([2]; 50, 100, 200 and 500 μM, second phase of light): dose dependent curve that eventually ended in a plateau
- effect on spontaneous swimming at high concentrations ([2]; 200 and 500 μM, spontaneous swimming phase): did not cause elevation in spontaneous swimming
- most potent concentration in affecting locomotor activity ([2]; tested 1-500 μM): 100 µM
- RNAi-enhancing activity (RNAi): substantial RNAi-enhancing activity
- potency against Pseudomonas aeruginosa among quinolones (Pseudomonas aeruginosa): most potent quinolone
